From PubChem BioAssay AID1963842 (Molecular Pharmacology Branch, DTP, NCI, 2024)

System: 677734-321-R-J1-PDC complex spheroid viability
Test: Anticancer human tumor 677734-321-R-J1-PDC patient-derived soft tissue sarcoma cell line growth inhibition [POLQ]
Conditions: for IC50: curve of first compound; for viability, T/C: stronger effect = lower value
Outline: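 PDC + HUVEC + MSC complex spheroids; POLQ inhibitors ± partner drugs; top conc. at/near clinical Cmax, else 10 microM (SN-38 1 microM), half-log dilutions; 37 degrees C, 5% CO2.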
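Further: spheroids exposed to compounds for one week.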
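Wherever viability, T/C is given: 100% = vehicle DMSO treated spheroids.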

CC(=O)O[C@H]1C(=O)[C@@]2(C)[C@H]([C@H](OC(=O)c3ccccc3)[C@]3(O)C[C@H](OC(=O)[C@H](O)[C@@H](NC(=O)c4ccccc4)c4ccccc4)C(C)=C1C3(C)C)[C@]1(OC(C)=O)CO[C@@H]1C[C@@H]2O + Cc1cccc(N(C)C(=O)C2C(O)CCN2c2nc(C)cc(C(F)(F)F)c2C#N)c1
IC50 (second compound 0.0316 µM): < 9.49 nM
IC50 (second compound 0.1 µM): < 9.49 nM
IC50 (second compound 0.316 µM): < 9.49 nM
IC50 (second compound 1 µM): < 9.49 nM
IC50 (second compound 3.16 µM): < 9.49 nM
IC50 (second compound 10 µM): < 9.49 nM
viability, T/C (second compound 0.0316 µM, first compound 0.00949 µM): 21.8%
viability, T/C (second compound 0.0316 µM, first compound 0.03 µM): 14.4%
viability, T/C (second compound 0.0316 µM, first compound 0.0949 µM): 14.1%
viability, T/C (second compound 0.0316 µM, first compound 0.3 µM): 12.6%
viability, T/C (second compound 0.0316 µM, first compound 0.949 µM): 10.9%
viability, T/C (second compound 0.0316 µM, first compound 3 µM): 12.8%
viability, T/C (second compound 0.1 µM, first compound 0.00949 µM): 23.7%
viability, T/C (second compound 0.1 µM, first compound 0.03 µM): 16.1%
viability, T/C (second compound 0.1 µM, first compound 0.0949 µM): 13.6%
viability, T/C (second compound 0.1 µM, first compound 0.3 µM): 13.3%
viability, T/C (second compound 0.1 µM, first compound 0.949 µM): 13.5%
viability, T/C (second compound 0.1 µM, first compound 3 µM): 15.6%
viability, T/C (second compound 0.316 µM, first compound 0.00949 µM): 22.8%
viability, T/C (second compound 0.316 µM, first compound 0.03 µM): 18.9%
viability, T/C (second compound 0.316 µM, first compound 0.0949 µM): 12.4%
viability, T/C (second compound 0.316 µM, first compound 0.3 µM): 10.3%
viability, T/C (second compound 0.316 µM, first compound 0.949 µM): 12.4%
viability, T/C (second compound 0.316 µM, first compound 3 µM): 13.9%
viability, T/C (second compound 1 µM, first compound 0.00949 µM): 26%
viability, T/C (second compound 1 µM, first compound 0.03 µM): 23.1%
viability, T/C (second compound 1 µM, first compound 0.0949 µM): 14%
viability, T/C (second compound 1 µM, first compound 0.3 µM): 11.4%
viability, T/C (second compound 1 µM, first compound 0.949 µM): 9.6%
viability, T/C (second compound 1 µM, first compound 3 µM): 9.4%
viability, T/C (second compound 3.16 µM, first compound 0.00949 µM): 23.6%
viability, T/C (second compound 3.16 µM, first compound 0.03 µM): 13.4%
viability, T/C (second compound 3.16 µM, first compound 0.0949 µM): 12.2%
viability, T/C (second compound 3.16 µM, first compound 0.3 µM): 12.8%
viability, T/C (second compound 3.16 µM, first compound 0.949 µM): 12%
viability, T/C (second compound 3.16 µM, first compound 3 µM): 14.6%
viability, T/C (second compound 10 µM, first compound 0.00949 µM): 27.3%
viability, T/C (second compound 10 µM, first compound 0.03 µM): 12.4%
viability, T/C (second compound 10 µM, first compound 0.0949 µM): 12.2%
viability, T/C (second compound 10 µM, first compound 0.3 µM): 14.5%
viability, T/C (second compound 10 µM, first compound 0.949 µM): 11.3%
viability, T/C (second compound 10 µM, first compound 3 µM): 11.4%

CC[C@@]1(O)C(=O)OCc2c1cc1n(c2=O)Cc2cc3c(CN(C)C)c(O)ccc3nc2-1 + Cc1cccc(N(C)C(=O)C2C(O)CCN2c2nc(C)cc(C(F)(F)F)c2C#N)c1
IC50 (second compound 0.0316 µM): 26.2 nM
IC50 (second compound 0.1 µM): 26.2 nM
IC50 (second compound 0.316 µM): 23 nM
IC50 (second compound 1 µM): 27.5 nM
IC50 (second compound 3.16 µM): 24.3 nM
IC50 (second compound 10 µM): 25.3 nM
viability, T/C (second compound 0.0316 µM, first compound 0.000316 µM): 104%
viability, T/C (second compound 0.0316 µM, first compound 0.001 µM): 105%
viability, T/C (second compound 0.0316 µM, first compound 0.00316 µM): 102%
viability, T/C (second compound 0.0316 µM, first compound 0.01 µM): 102%
viability, T/C (second compound 0.0316 µM, first compound 0.0316 µM): 39.4%
viability, T/C (second compound 0.0316 µM, first compound 0.1 µM): 15.8%
viability, T/C (second compound 0.1 µM, first compound 0.000316 µM): 103%
viability, T/C (second compound 0.1 µM, first compound 0.001 µM): 113%
viability, T/C (second compound 0.1 µM, first compound 0.00316 µM): 108%
viability, T/C (second compound 0.1 µM, first compound 0.01 µM): 99.9%
viability, T/C (second compound 0.1 µM, first compound 0.0316 µM): 40.2%
viability, T/C (second compound 0.1 µM, first compound 0.1 µM): 21.1%
viability, T/C (second compound 0.316 µM, first compound 0.000316 µM): 112%
viability, T/C (second compound 0.316 µM, first compound 0.001 µM): 112%
viability, T/C (second compound 0.316 µM, first compound 0.00316 µM): 100%
viability, T/C (second compound 0.316 µM, first compound 0.01 µM): 91.3%
viability, T/C (second compound 0.316 µM, first compound 0.0316 µM): 34.1%
viability, T/C (second compound 0.316 µM, first compound 0.1 µM): 17.8%
viability, T/C (second compound 1 µM, first compound 0.000316 µM): 124%
viability, T/C (second compound 1 µM, first compound 0.001 µM): 96.4%
viability, T/C (second compound 1 µM, first compound 0.00316 µM): 105%
viability, T/C (second compound 1 µM, first compound 0.01 µM): 100%
viability, T/C (second compound 1 µM, first compound 0.0316 µM): 42.2%
viability, T/C (second compound 1 µM, first compound 0.1 µM): 17.6%
viability, T/C (second compound 3.16 µM, first compound 0.000316 µM): 120%
viability, T/C (second compound 3.16 µM, first compound 0.001 µM): 100%
viability, T/C (second compound 3.16 µM, first compound 0.00316 µM): 109%
viability, T/C (second compound 3.16 µM, first compound 0.01 µM): 94.1%
viability, T/C (second compound 3.16 µM, first compound 0.0316 µM): 37%
viability, T/C (second compound 3.16 µM, first compound 0.1 µM): 17.5%
viability, T/C (second compound 10 µM, first compound 0.000316 µM): 108%
viability, T/C (second compound 10 µM, first compound 0.001 µM): 100%
viability, T/C (second compound 10 µM, first compound 0.00316 µM): 98.2%
viability, T/C (second compound 10 µM, first compound 0.01 µM): 91.9%
viability, T/C (second compound 10 µM, first compound 0.0316 µM): 39.8%
viability, T/C (second compound 10 µM, first compound 0.1 µM): 23.2%
